Measured values: PubChem BioAssay AID1918999 (Molecular Pharmacology Branch, DTP, NCI, 2023)
Several values for one entry are separate records, joined by “and”; a condition that tells them apart may be missing. Equal values may be shown once.

System: 556581-035-R-J1-PDC complex spheroid growth
Assay: Anticancer human tumor 556581-035-R-J1-PDC patient-derived ovarian carcinoma cell line growth inhibition [AhR]
Conditions: for viability, T/C: stronger effect = lower value; active = viability on the fitted dose curve at most 10% of control; inactive = the rest
Outline: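 Complex tumor spheroids co-cultured with HUVEC and human MSC stroma; AhR antagonists tested in combination with standard-of-care and investigational agents. Top concentration at or near clinical Cmax (else 10 microM), half-log dilutions; growth expressed as percent test/control.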

[1] = curve of first compound, second compound 0.1 µM
[2] = curve of first compound, second compound 0.316 µM
[3] = curve of first compound, second compound 1 µM
[4] = curve of first compound, second compound 3.16 µM
[5] = curve of first compound, second compound 10 µM
[6] = second compound 0.1 µM, first compound 0.0316 µM
[7] = second compound 0.1 µM, first compound 0.1 µM
[8] = second compound 0.1 µM, first compound 0.316 µM
[9] = second compound 0.1 µM, first compound 1 µM
[10] = second compound 0.1 µM, first compound 3.16 µM
[11] = second compound 0.1 µM, first compound 10 µM
[12] = second compound 0.316 µM, first compound 0.0316 µM
[13] = second compound 0.316 µM, first compound 0.1 µM
[14] = second compound 0.316 µM, first compound 0.316 µM
[15] = second compound 0.316 µM, first compound 1 µM
[16] = second compound 0.316 µM, first compound 3.16 µM
[17] = second compound 0.316 µM, first compound 10 µM
[18] = second compound 1 µM, first compound 0.0316 µM
[19] = second compound 1 µM, first compound 0.1 µM
[20] = second compound 1 µM, first compound 0.316 µM
[21] = second compound 1 µM, first compound 1 µM
[22] = second compound 1 µM, first compound 3.16 µM
[23] = second compound 1 µM, first compound 10 µM
[24] = second compound 3.16 µM, first compound 0.0316 µM
[25] = second compound 3.16 µM, first compound 0.1 µM
[26] = second compound 3.16 µM, first compound 0.316 µM
[27] = second compound 3.16 µM, first compound 1 µM
[28] = second compound 3.16 µM, first compound 3.16 µM
[29] = second compound 3.16 µM, first compound 10 µM
[30] = second compound 10 µM, first compound 0.0316 µM
[31] = second compound 10 µM, first compound 0.1 µM
[32] = second compound 10 µM, first compound 0.316 µM
[33] = second compound 10 µM, first compound 1 µM
[34] = second compound 10 µM, first compound 3.16 µM
[35] = second compound 10 µM, first compound 10 µM
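For viability, T/C in this document: compound exposure lasted 7 days; 100% = DMSO vehicle control growth.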

NS(=O)(=O)OCC1CC(n2ccc3c(NC4CCc5ccccc54)ncnc32)CC1O (stereo unspecified) + CC(CO)NC(=O)c1cc(-c2ccc(Cl)cc2)nn(-c2cnn(C)c2)c1=O
inactive: viability, T/C [6] 98.2% | viability, T/C [7] 108% | viability, T/C [8] 112% | viability, T/C [9] 107% | viability, T/C [10] 107% | viability, T/C [11] 86.9% | viability, T/C [12] 107% | viability, T/C [13] 121% | viability, T/C [14] 97.1% | viability, T/C [15] 104% | viability, T/C [16] 109% | viability, T/C [17] 78.9% | viability, T/C [18] 106% | viability, T/C [19] 118% | viability, T/C [20] 104% | viability, T/C [21] 111% | viability, T/C [22] 88.3% | viability, T/C [23] 86.7% | viability, T/C [24] 101% | viability, T/C [25] 111% | viability, T/C [26] 103% | viability, T/C [27] 106% | viability, T/C [28] 99.8% | viability, T/C [29] 89.5% | viability, T/C [30] 95.8% | viability, T/C [31] 109% | viability, T/C [32] 115% | viability, T/C [33] 109% | viability, T/C [34] 121% | viability, T/C [35] 96.7%
> 10 µM: IC50 [1] | IC50 [2] | IC50 [3] | IC50 [4] | IC50 [5]

CC1(C)CCC(CN2CCN(c3ccc(C(=O)NS(=O)(=O)c4ccc(NCC5CCOCC5)c([N+](=O)[O-])c4)c(Oc4cnc5[nH]ccc5c4)c3)CC2)=C(c2ccc(Cl)cc2)C1
inactive: viability, T/C (compound 0.0316 µM) 98.3% and 100% and 107% | viability, T/C (compound 0.1 µM) 102% and 104% and 108% | viability, T/C (compound 0.316 µM) 88.4% and 106% and 96.5% | viability, T/C (compound 1 µM) 90.5% (2×) and 107% | viability, T/C (compound 3.16 µM) 97.1% and 101% and 97.2% | viability, T/C (compound 10 µM) 75% and 79.2% and 73.8%
> 10 µM: IC50 (curve of compound)

NS(=O)(=O)OCC1CC(n2ccc3c(NC4CCc5ccccc54)ncnc32)CC1O (stereo unspecified) + Cc1cncc(-c2nc(NCCc3c[nH]c4ccccc34)c3ncn(C(C)C)c3n2)c1
inactive: viability, T/C [6] 109% | viability, T/C [7] 102% | viability, T/C [8] 95.9% | viability, T/C [9] 90.5% | viability, T/C [10] 81.1% | viability, T/C [11] 62.5% | viability, T/C [12] 98.1% | viability, T/C [13] 104% | viability, T/C [14] 92.7% | viability, T/C [15] 85.8% | viability, T/C [16] 72.7% | viability, T/C [17] 62.2% | viability, T/C [18] 112% | viability, T/C [19] 120% | viability, T/C [20] 87.7% | viability, T/C [21] 81.6% | viability, T/C [22] 74% | viability, T/C [23] 63.8% | viability, T/C [24] 99.9% | viability, T/C [25] 119% | viability, T/C [26] 96.4% | viability, T/C [27] 84.8% | viability, T/C [28] 70.5% | viability, T/C [29] 49.5% | viability, T/C [30] 87.8% | viability, T/C [31] 95.5% | viability, T/C [32] 71.9% | viability, T/C [33] 71% | viability, T/C [34] 45.6% | viability, T/C [35] 27.6%
2.67 µM: IC50 [5]
> 10 µM: IC50 [1] | IC50 [2] | IC50 [3] | IC50 [4]

COc1cc(C2c3cc4c(cc3C(OC3OC5COC(C)OC5C(O)C3O)C3COC(=O)C23)OCO4)cc(OC)c1O (stereo unspecified)
7.21 µM and 8.06 µM and 9.56 µM: IC50 (curve of compound)
inactive: viability, T/C (compound 0.0316 µM) 104% and 107% and 99.2% | viability, T/C (compound 0.1 µM) 103% (2×) and 100% | viability, T/C (compound 0.316 µM) 84.9% and 82.3% and 74.7% | viability, T/C (compound 1 µM) 78.2% and 84.1% and 76.3% | viability, T/C (compound 3.16 µM) 62.1% and 66.4% and 67.5% | viability, T/C (compound 10 µM) 45.1% and 44.2% and 47.1%

Cc1ccccc1N=Nc1ccc(NC(=O)c2ccnn2C)c(C)c1
> 10 µM: IC50 (compound alone, run of 06/14/2022)
inactive: viability, T/C (compound 1 µM) 99.6% [middle of 20 runs]

CC1(C)CCC(CN2CCN(c3ccc(C(=O)NS(=O)(=O)c4ccc(NCC5CCOCC5)c([N+](=O)[O-])c4)c(Oc4cnc5[nH]ccc5c4)c3)CC2)=C(c2ccc(Cl)cc2)C1 + Cc1cncc(-c2nc(NCCc3c[nH]c4ccccc34)c3ncn(C(C)C)c3n2)c1
> 10 µM: IC50 [1] | IC50 [2] | IC50 [3] | IC50 [4] | IC50 [5]
inactive: viability, T/C [6] 104% | viability, T/C [7] 98.6% | viability, T/C [8] 102% | viability, T/C [9] 91% | viability, T/C [10] 93.1% | viability, T/C [11] 77.5% | viability, T/C [12] 95.6% | viability, T/C [13] 98.2% | viability, T/C [14] 102% | viability, T/C [15] 95.1% | viability, T/C [16] 96.3% | viability, T/C [17] 72.3% | viability, T/C [18] 105% | viability, T/C [19] 99.9% | viability, T/C [20] 101% | viability, T/C [21] 91.5% | viability, T/C [22] 85.6% | viability, T/C [23] 76.9% | viability, T/C [24] 95.2% | viability, T/C [25] 101% | viability, T/C [26] 91% | viability, T/C [27] 87.8% | viability, T/C [28] 80.6% | viability, T/C [29] 67.8% | viability, T/C [30] 88.9% | viability, T/C [31] 80.6% | viability, T/C [32] 87.6% | viability, T/C [33] 83.7% | viability, T/C [34] 81.2% | viability, T/C [35] 67.1%

COc1cc(Nc2ncc3c(n2)-c2ccc(Cl)cc2C(c2c(F)cccc2OC)=NC3)ccc1C(=O)O + Cc1cncc(-c2nc(NCCc3c[nH]c4ccccc34)c3ncn(C(C)C)c3n2)c1
> 10 µM: IC50 [1] | IC50 [2] | IC50 [3] | IC50 [4] | IC50 [5]
inactive: viability, T/C [6] 97.2% | viability, T/C [7] 83.4% | viability, T/C [8] 79.5% | viability, T/C [9] 71.2% | viability, T/C [10] 71.1% | viability, T/C [11] 58.4% | viability, T/C [12] 91.5% | viability, T/C [13] 87.9% | viability, T/C [14] 72.5% | viability, T/C [15] 76.8% | viability, T/C [16] 62.1% | viability, T/C [17] 62.3% | viability, T/C [18] 84.9% | viability, T/C [19] 81.9% | viability, T/C [20] 78.7% | viability, T/C [21] 72.6% | viability, T/C [22] 67.8% | viability, T/C [23] 65.9% | viability, T/C [24] 86.2% | viability, T/C [25] 76.9% | viability, T/C [26] 77.2% | viability, T/C [27] 73.2% | viability, T/C [28] 72.8% | viability, T/C [29] 65.9% | viability, T/C [30] 89.4% | viability, T/C [31] 74.1% | viability, T/C [32] 78.1% | viability, T/C [33] 70.7% | viability, T/C [34] 71% | viability, T/C [35] 75.2%

Cn1ncnc1C1c2n[nH]c(=O)c3cc(F)cc(c23)NC1c1ccc(F)cc1 (stereo unspecified) + Cc1cncc(-c2nc(NCCc3c[nH]c4ccccc34)c3ncn(C(C)C)c3n2)c1
> 0.1 µM: IC50 [1] | IC50 [2] | IC50 [3] | IC50 [4] | IC50 [5]
inactive: viability, T/C (second compound 0.1 µM, first compound 0.000316 µM) 105% | viability, T/C (second compound 0.1 µM, first compound 0.001 µM) 102% | viability, T/C (second compound 0.1 µM, first compound 0.00316 µM) 95.1% | viability, T/C (second compound 0.1 µM, first compound 0.01 µM) 110% | viability, T/C [6] 92.4% | viability, T/C [7] 90.3% | viability, T/C (second compound 0.316 µM, first compound 0.000316 µM) 99.2% | viability, T/C (second compound 0.316 µM, first compound 0.001 µM) 99.3% | viability, T/C (second compound 0.316 µM, first compound 0.00316 µM) 101% | viability, T/C (second compound 0.316 µM, first compound 0.01 µM) 89.8% | viability, T/C [12] 86.9% | viability, T/C [13] 86.6% | viability, T/C (second compound 1 µM, first compound 0.000316 µM) 96.1% | viability, T/C (second compound 1 µM, first compound 0.001 µM) 104% | viability, T/C (second compound 1 µM, first compound 0.00316 µM) 102% | viability, T/C (second compound 1 µM, first compound 0.01 µM) 102% | viability, T/C [18] 103% | viability, T/C [19] 98.6% | viability, T/C (second compound 3.16 µM, first compound 0.000316 µM) 90.6% | viability, T/C (second compound 3.16 µM, first compound 0.001 µM) 107% | viability, T/C (second compound 3.16 µM, first compound 0.00316 µM) 97.7% | viability, T/C (second compound 3.16 µM, first compound 0.01 µM) 91.8% | viability, T/C [24] 85.2% | viability, T/C [25] 101% | viability, T/C (second compound 10 µM, first compound 0.000316 µM) 87.2% | viability, T/C (second compound 10 µM, first compound 0.001 µM) 83.4% | viability, T/C (second compound 10 µM, first compound 0.00316 µM) 92% | viability, T/C (second compound 10 µM, first compound 0.01 µM) 85.7% | viability, T/C [30] 89.9% | viability, T/C [31] 79.1%
